From patent US7354935B2, “Radiolabeled neurokinin-1 receptor antagonists” (Merck & Co. Inc., priority 2002, dated 2008)

Tests used:
[1] = Percent of parent tracer remaining in monkey plasma (plasma half-life comparison, TLC/gamma counting); format: in vivo, rhesus monkey; conditions: for % parent tracer remaining in monkey plasma / Amount of tracer remaining in plasma relative to the protonated tracer: rhesus monkey; for Amount of tracer remaining in plasma relative to the protonated tracer: versus Compound A
Description: To compare the plasma half-life of [^18F][2-fluoromethoxy-5-(5-trifluoromethyl-tetrazol-1-yl)-benzyl]-([2S,3S]-2-phenyl-piperidin-3-yl)-amine (Compound A) and [^18F][2-fluorodideuteromethoxy-5-(5-trifluoromethyl-tetrazol-1-yl)-benzyl]-([2S,3S]-2-phenyl-piperidin-3-yl)-amine (Compound B) in rhesus monkey, ˜5 mCi of each radiotracer (in saline) was injected by iv into an anesthetized monkey. At various time points, whole blood was drawn, mixed with 0.02 mL of acetonitrile and centrifuged for 3-5 minutes at 5000 rpm. A 0.02 mL aliquot of the acetonitrile extract was spotted on a 5×7 cm TLC plate along with the cold standard and developed using 60:40:0.1 ethyl acetate:methanol:triethylamine. The TLC plate was cut into four sections pertaining to the origin, to determine the amount of fluoride present, the section between the origin and where the standard eluted, to determine polar metabolites, the section where the parent compound eluted, to determine the amount of parent compound remaining, and the area between the parent compound and the solvent front for nonpolar metabolites. The TLC strips were then counted in a gamma counter to determine the number of counts for each section of TLC plate. The percentage of the total counts that were due to the remaining parent compound was determined. […] With the higher prolonged plasma levels of the deuterated tracer, more time is available for a larger specific signal to develop, and for the tracer to accumulate in brain regions that have a low receptor concentration and could be difficult to image using the protonated tracer.

[2] = molecular target: T1, NK1 receptor (Macaca mulatta, UniProt F7GQV6); assay: Chase study with an unlabelled NK1 antagonist, PET regions of interest (chaseability); format: in vivo, rhesus monkey; conditions: for Remaining Specific Binding in Rhesus Monkey after 1 mpk Chase at 180 Minutes with an NK1 Antagonist: striatum minus cerebellum
T1 construct: from tissue; host or cells: brain (striatum and other regions) of a living rhesus monkey, PET imaging
T1 sequence (F7GQV6 1-407): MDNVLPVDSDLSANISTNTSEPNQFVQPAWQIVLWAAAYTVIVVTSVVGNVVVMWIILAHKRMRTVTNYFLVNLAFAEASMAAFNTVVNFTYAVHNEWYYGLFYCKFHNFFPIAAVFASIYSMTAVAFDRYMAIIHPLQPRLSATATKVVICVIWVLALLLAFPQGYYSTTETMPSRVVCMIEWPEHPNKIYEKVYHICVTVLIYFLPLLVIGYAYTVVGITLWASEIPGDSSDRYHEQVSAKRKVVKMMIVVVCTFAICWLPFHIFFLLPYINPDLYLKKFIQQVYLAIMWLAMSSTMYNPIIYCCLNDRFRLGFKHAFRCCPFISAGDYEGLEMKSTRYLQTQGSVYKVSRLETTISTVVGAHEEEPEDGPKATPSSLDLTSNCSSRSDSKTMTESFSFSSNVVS
Description: A bolus of an unlabelled NK1 antagonist was administered 180 minutes after a bolus injection of either tracer. From the resulting images, regions of interest were drawn to determine the amount of radioactivity present in different brain regions. […] Also, using the 70% level of chase as a comparison (30% remaining specific binding), the fluoroethoxy compound reaches this level ˜50 minutes before the dideuterofluoromethoxy analog reaches this same level. Because the fluoroethoxy compound [^18F][2-fluoroethoxy-5-(5-trifluoromethyl-tetrazol-1-yl)-benzyl]-([2S,3S]-2-phenyl-piperidin-3-yl)-amine chases from the striatum faster than the fluoromethoxy analog, a more accurate picture of what the true receptor occupancy is can be obtained using the fluoroethoxy analog.

[3] = Brain levels of the tracer; format: in vivo; conditions: comparison in words
[4] = 5 minutes after iv injection of ~5 mCi
[5] = 15 minutes after iv injection of ~5 mCi
[6] = 30 minutes after iv injection of ~5 mCi
[7] = 45 minutes after iv injection of ~5 mCi
[8] = 60 minutes after iv injection of ~5 mCi
[9] = 120 minutes after iv injection of ~5 mCi
[10] = 180 minutes after iv injection of ~5 mCi

% parent tracer remaining in monkey plasma [1, 4] [%]	% parent tracer remaining in monkey plasma [1, 5] [%]	% parent tracer remaining in monkey plasma [1, 6] [%]	% parent tracer remaining in monkey plasma [1, 7] [%]	% parent tracer remaining in monkey plasma [1, 8] [%]	% parent tracer remaining in monkey plasma [1, 9] [%]	% parent tracer remaining in monkey plasma [1, 10] [%]	Brain levels of the tracer relative to the [18F]fluoromethoxy compound [3]	Metabolic stability relative to the [18F]fluoromethoxy compound of U.S. Pat. No. 6,241,964 ([1]; comparison in words)	Plasma half-life relative to the [18F]fluoromethoxy compound of U.S. Pat. No. 6,241,964 ([1]; comparison in words)	Amount of tracer remaining in plasma relative to the protonated tracer ([1]; end of the experiment (3 hours))	Remaining Specific Binding in Rhesus Monkey after 1 mpk Chase at 180 Minutes with an NK1 Antagonist ([2]; 230 minutes after tracer) [%]	Remaining Specific Binding in Rhesus Monkey after 1 mpk Chase at 180 Minutes with an NK1 Antagonist ([2]; 270 minutes after tracer) [%]	Displacement from the NK1 receptor when unlabelled compounds are administered, relative to the [18F]fluoromethoxy compound ([2]; comparison in words)	Molecule	Remaining Specific Binding in Rhesus Monkey after 1 mpk Chase at 180 Minutes with an NK1 Antagonist ([2]; 195 minutes after tracer) [%]	Remaining Specific Binding in Rhesus Monkey after 1 mpk Chase at 180 Minutes with an NK1 Antagonist ([2]; 205 minutes after tracer) [%]	Remaining Specific Binding in Rhesus Monkey after 1 mpk Chase at 180 Minutes with an NK1 Antagonist ([2]; 220 minutes after tracer) [%]	Time at which tracer begins to chase (is displaced from the receptor) after administration of the unlabelled antagonist ([2]; striatum, rhesus monkey)	Time by which the 70% level of chase (30% remaining specific binding) is reached before the dideuterofluoromethoxy analog ([2]; striatum, rhesus monkey, versus Compound B) [minutes]	Amount of tracer remaining in plasma relative to the protonated tracer ([1]; all time points examined)
72	55	38	35	25	16	9								FC(F)(F)c1nnnn1-c1ccc(OC[18F])c(CN[C@H]2CCCN[C@H]2c2ccccc2)c1 [Compound A, [^18F][2-fluoromethoxy-5-(5-trifluoromethyl-tetrazol-1-yl)-benzyl]-([2S,3S]-2-phenyl-piperidin-3-yl)-amine, reference compound]						
														FC(F)(F)c1nnnn1-c1ccc(OCC[18F])c(CN[C@H]2CCCN[C@H]2c2ccccc2)c1 [Compound C, [^18F][2-fluoroethoxy-5-(5-trifluoromethyl-tetrazol-1-yl)-benzyl]-([2S,3S]-2-phenyl-piperidin-3-yl)-amine]	~85	~55	~30	almost immediately	~50	
91	87	75	39	41	23	20	relatively higher brain levels	metabolically more stable	longer plasma half-life	twice as much	~55	~30		[2H]C([2H])([18F])Oc1ccc(-n2nnnc2C(F)(F)F)cc1CN[C@H]1CCCN[C@H]1c1ccccc1 [Compound B, [^18F][2-fluorodideuteromethoxy-5-(5-trifluoromethyl-tetrazol-1-yl)-benzyl]-([2S,3S]-2-phenyl-piperidin-3-yl)-amine]	~96	~85		about 30 minutes		more of the deuterated tracer remaining in the plasma than the protonated tracer
													faster	[^18F][2-fluoroethoxy-5-(5-trifluoromethyl-tetrazol-1-yl)-benzyl]-([2S,3S]-2-phenyl-piperidin-3-yl)-amine [Compound C]						
